20 compounds from patent US8399676B2, “Piperidine derivatives” (Hoffman-La Roche Inc., priority 2009, dated 2013) can be followed below.

Each structure is given as a SMILES string.

In this test the target is T1, human HSL (Homo sapiens, UniProt Q05469).
T1 construct: generate a full length human HSL ORF with a 3′-His6 tag; His6 (C); made in house; host or cells: High 5 insect cells (baculovirus, pFast-BAC)
T1 sequence (Q05469 1-1076): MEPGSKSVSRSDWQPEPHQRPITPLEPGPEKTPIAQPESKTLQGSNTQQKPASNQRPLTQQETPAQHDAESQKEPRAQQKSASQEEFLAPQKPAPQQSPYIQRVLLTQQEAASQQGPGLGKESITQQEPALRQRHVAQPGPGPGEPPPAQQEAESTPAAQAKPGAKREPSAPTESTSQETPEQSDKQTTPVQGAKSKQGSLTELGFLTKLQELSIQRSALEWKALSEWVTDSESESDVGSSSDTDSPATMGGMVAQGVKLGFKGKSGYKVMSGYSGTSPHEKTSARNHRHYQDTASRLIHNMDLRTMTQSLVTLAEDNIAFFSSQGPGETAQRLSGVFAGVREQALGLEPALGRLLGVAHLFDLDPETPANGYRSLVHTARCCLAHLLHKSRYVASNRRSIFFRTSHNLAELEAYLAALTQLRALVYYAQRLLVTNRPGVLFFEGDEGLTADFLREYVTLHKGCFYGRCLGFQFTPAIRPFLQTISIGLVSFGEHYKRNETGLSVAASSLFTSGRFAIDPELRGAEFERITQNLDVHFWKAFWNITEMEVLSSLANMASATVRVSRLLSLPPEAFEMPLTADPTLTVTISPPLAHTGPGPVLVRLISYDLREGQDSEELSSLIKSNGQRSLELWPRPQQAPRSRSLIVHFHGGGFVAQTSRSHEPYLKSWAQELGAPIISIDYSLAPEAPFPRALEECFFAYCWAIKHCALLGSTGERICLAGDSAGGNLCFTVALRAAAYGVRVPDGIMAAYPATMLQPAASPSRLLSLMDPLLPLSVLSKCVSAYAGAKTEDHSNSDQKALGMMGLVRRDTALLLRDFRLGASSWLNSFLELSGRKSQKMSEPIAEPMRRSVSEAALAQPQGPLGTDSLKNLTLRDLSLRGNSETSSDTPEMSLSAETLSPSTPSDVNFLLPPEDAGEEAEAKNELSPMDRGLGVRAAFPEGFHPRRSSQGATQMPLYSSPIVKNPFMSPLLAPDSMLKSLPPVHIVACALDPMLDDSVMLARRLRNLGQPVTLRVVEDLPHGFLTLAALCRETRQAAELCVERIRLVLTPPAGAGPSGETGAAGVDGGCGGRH
Description: Human Hormone-Sensitive Lipase (HSL) enzyme inhibition assay (colorimetric, DMPT substrate). As to conditions: read-out: HSL hum IC50. Format: biochemical. As for the experimental part:
Production of Human Full Length Hormone Sensitive Lipase-His^6
1) Cloning: cDNA was prepared from commercial human brain polyA+ RNA and used as a template in overlapping PCR to generate a full length human HSL ORF with a 3′-His6 tag. This full length insert was cloned into the pFast-BAC vector and the DNA-sequence of several single clones was verified. DNA from a correct full length clone with the 3′His6 tag was used to transform the E. coli strain DH10BAC. Resulting bacmid DNA was used to generate a titered baculovirus stock for protein generation. The sequence of the encoded HSL conforms to Swissprot entry Q05469, with the additional C-terminal His6-tag.
2) Protein purification: Culture: 5.5 L, High 5 cells expressing human full length HSL-His^6, 48 hr., containing 25 μM E-64. Cell count: […], 90% viable.
Cells were thawed. On ice, cells were suspended in Base Buffer containing 10% glycerol, 25 mM Tris-Cl, 300 mM NaCl, 10 mM imidazole, 10 mM 2-mercaptoethanol, 2 μg pepstatin/ml, 2 μg leupeptin/ml, 2 μg antipain/ml, pH 8.0 at 4° C. in a final volume of 475 ml with 3.75×10^7 cells/ml. […] was done at 3×30 sec., Lubrol PX was added to 0.2% final concentration followed by stirring for 15 min. at 4° C. and centrifugation at 25 k×g, 60 min., 4° C. Soluble proteins were mixed with 60 ml of pre-washed and equilibrated Ni-NTA Agarose (Qiagen 30210) followed by tumbling end-over-end, 45 min., 4° C., centrifugation 1000 rpm 5 min and letting resin settle 5 min. Supernatant was removed, the resin washed in the centrifuge vessel using 5 volumes of Base Buffer containing 0.2% Lubrol PX. Centrifugation was done again, then the supernatant discarded. The resin was poured onto a 0.8 μm membrane in a disposable filter unit (Nalge 450-0080), and washed with 5 volumes of Base Buffer containing 0.2% Lubrol PX. It was then washed with 30 volumes of Base Buffer containing 60 mM imidazole pH 7.5 at 4° C. The protein was eluted with 5 volumes of 25 mM Tris-Cl, 300 mM NaCl, 200 mM imidazole, 10 mM 2-mercaptoethanol, pH 7.5 at 4° C. by tumbling resin with buffer end-over-end, 30 min., 4° C. The resin was captured on a 0.2 μm membrane disposable filter unit (Millipore SCGP U02 RE) and the elute collected in the reservoir. The elute was concentrated using a 30 k MWCO centrifugal filter device (Sartorius Vivascience Vivacell 100, VC1022), to 20 ml. It was then dialyzed overnight at 4° C., two times against 2 L of 10% glycerol, 25 mM Tris-Cl, 300 mM NaCl, 0.2 mM EDTA, 0.2 mM DTT, pH 7.5 at 4° C. The protein was filtered using a 0.22 μm disposable filter unit (Millipore SCGP00525). The protein concentration was calculated from absorbance at 280 nm, using 280=0.67 cm-1 mg-1. Yield was 235 mg, total. The protein was stored at −80° C. Human Hormone-Sensitive Lipase (HSL) enzyme inhibition assay:
HSL enzyme activity was measured by a colorimetric assay using 2,3-dimercapto-1-propanol tributyrate (Aldrich, St. Louis, Mo.) as a substrate. Typically, 1.5 mM 2,3-dimercapto-1-propanol tributyrate (DMPT) in 100 mM MOPS, pH 7.2, 0.2 mg/ml fatty acid-free BSA was prepared by sonication at 4° C. to homogenous suspension. Test compounds (2 mM stock in DMSO) were diluted 3 fold in series in DMSO. Compound solutions were diluted 24 fold in 1.5 mM DMPT containing solution and 18 ul per well was added to 384-well microplates (Corning Costar). Twelve microliters per well of human HSL (15 ug/ml) was added and the reaction mixture was incubated at 37° C. for 20 minutes. Six microliters of 12 mM dithio-bis-(2-nitrobenzoic acid) (DTNB) in DMSO plus 1.2% SDS and 0.6% Triton X-100 were added and the mixture was incubated at room temperature for 15 minutes. Product production was monitored by reading absorbance at 405 nm on an Envision Reader (PerkinElmer Life and Analytical Sciences, Shelton, Conn.).
For the compound `CC(C)(C)c1ccc(NC(=O)C2(O)CCN(C(=O)c3ccc(F)cc3F)CC2)cc1` [Example 41, 1-(2,4-Difluoro-benzoyl)-4-hydroxy-piperidine-4-carboxylic acid (4-tert-butyl-phenyl)-amide], the IC50 (in general, the concentration that inhibits the measured activity by half) came out at 490 nM.

Turning to `CC(C)(C)c1ccc(NC(=O)C2(O)CCN(C(=O)c3ccc(F)cc3C(F)(F)F)CC2)cc1` [Example 42, 1-(4-Fluoro-2-trifluoromethyl-benzoyl)-4-hydroxy-piperidine-4-carboxylic acid (4-tert-butyl-phenyl)-amide], the concentration for half-maximal inhibition (IC50) was 600 nM.

Consider `CC(C)(C)c1ccc(NC(=O)C2(O)CCN(C(=O)c3cc(F)ccc3F)CC2)cc1` [Example 43, 1-(2,5-Difluoro-benzoyl)-4-hydroxy-piperidine-4-carboxylic acid (4-tert-butyl-phenyl)-amide], for which the concentration for half-maximal inhibition (IC50) was 640 nM.

In the case of `CC(C)(C)c1ccc(NC(=O)C2(O)CCN(Cc3ccccc3Cl)CC2)cc1` [Example 44], the IC50 worked out at 80 nM.

Turning to `CC(C)(C)c1ccc(NC(=O)C2(O)CCN(Cc3ccccc3F)CC2)cc1` [Example 45, 1-(2-Fluoro-benzyl)-4-hydroxy-piperidine-4-carboxylic acid (4-tert-butyl-phenyl)-amide], the IC50 is 80 nM.

In the case of `Cc1ccccc1CN1CCC(O)(C(=O)Nc2ccc(C(C)(C)C)cc2)CC1` [Example 46, 4-Hydroxy-1-(2-methyl-benzyl)-piperidine-4-carboxylic acid (4-tert-butyl-phenyl)-amide], the half-inhibitory concentration (IC50) was determined as 220 nM.

In the case of `CC(C)(C)c1ccc(NC(=O)C2(O)CCN(Cc3ccccc3C(F)(F)F)CC2)cc1` [Example 47, 4-Hydroxy-1-(2-trifluoromethyl-benzyl)-piperidine-4-carboxylic acid (4-tert-butyl-phenyl)-amide], the IC50 amounted to 230 nM.

On to `CC(C)(C)c1ccc(NC(=O)C2(O)CCN(Cc3ccccc3OC(F)(F)F)CC2)cc1` [Example 48, 4-Hydroxy-1-(2-trifluoromethoxy-benzyl)-piperidine-4-carboxylic acid (4-tert-butyl-phenyl)-amide], for which the IC50 stood at 110 nM.

On to `COc1ccc(OC)c(NC(=O)N2CCC(O)(C(=O)Nc3ccc(C(C)(C)C)cc3)CC2)c1` [Example 49, 4-Hydroxy-piperidine-1,4-dicarboxylic acid 4-[(4-tert-butyl-phenyl)-amide] 1-[(2,5-dimethoxy-phenyl)-amide]], for which the concentration for half-maximal inhibition (IC50) is 660 nM.

`COc1ccc(Cl)cc1NC(=O)N1CCC(O)(C(=O)Nc2ccc(C(C)(C)C)cc2)CC1` [Example 50, 4-Hydroxy-piperidine-1,4-dicarboxylic acid 4-[(4-tert-butyl-phenyl)-amide] 1-[(5-chloro-2-methoxy-phenyl)-amide]]: the half-maximal inhibitory concentration (IC50) is 840 nM.

Turning to `CC(C)(C)CC(=O)N1CCC(O)(C(=O)Nc2ccc(OC(F)(F)F)cc2)CC1` [Example 51, 1-(3,3-Dimethyl-butyryl)-4-hydroxy-piperidine-4-carboxylic acid (4-trifluoromethoxy-phenyl)-amide], the IC50 stood at 810 nM.

Regarding `O=C(Nc1ccc(F)cc1)N1CCC(O)(C(=O)Nc2ccc(OC(F)(F)F)cc2)CC1` [Example 52, 4-Hydroxy-piperidine-1,4-dicarboxylic acid 1-[(4-fluoro-phenyl)-amide] 4-[(4-trifluoromethoxy-phenyl)-amide]], the half-maximal inhibitory concentration (IC50) amounted to 950 nM.

With `O=C(CC1CCCC1)N1CCC(O)(C(=O)Nc2ccc(OC(F)(F)F)cc2)CC1` [Example 53, 1-(2-Cyclopentyl-acetyl)-4-hydroxy-piperidine-4-carboxylic acid (4-trifluoromethoxy-phenyl)-amide], the IC50 came out at 790 nM.

As to `CC(C)CS(=O)(=O)N1CCC(O)(C(=O)Nc2ccc(OC(F)(F)F)cc2)CC1` [Example 54, 4-Hydroxy-1-(2-methyl-propane-1-sulfonyl)-piperidine-4-carboxylic acid (4-trifluoromethoxy-phenyl)-amide], the IC50 came out at 660 nM.

For the compound `CC(C)(C)CS(=O)(=O)N1CCC(O)(C(=O)Nc2ccc(OC(F)(F)F)cc2)CC1` [Example 55, 1-(2,2-Dimethyl-propane-1-sulfonyl)-4-hydroxy-piperidine-4-carboxylic acid (4-trifluoromethoxy-phenyl)-amide], the concentration for half-maximal inhibition (IC50) amounted to 330 nM.

For the compound `O=C(c1ccccc1Cl)N1CCC(O)(C(=O)Nc2ccc(OC(F)(F)F)cc2)CC1` [Example 56, 1-(2-Chloro-benzoyl)-4-hydroxy-piperidine-4-carboxylic acid (4-trifluoromethoxy-phenyl)-amide], the 50% inhibitory concentration (IC50) came out at 460 nM.

On to `O=C(Nc1ccc(OC(F)(F)F)cc1)C1(O)CCN(S(=O)(=O)c2cccs2)CC1` [Example 57, 4-Hydroxy-1-(thiophene-2-sulfonyl)-piperidine-4-carboxylic acid (4-trifluoromethoxy-phenyl)-amide], for which the concentration for half-maximal inhibition (IC50) worked out at 330 nM.

On to `O=C(Nc1ccc(OC(F)(F)F)cc1)C1(O)CCN(Cc2ccccc2F)CC1` [Example 58, 1-(2-Fluoro-benzyl)-4-hydroxy-piperidine-4-carboxylic acid (4-trifluoromethoxy-phenyl)-amide], for which the IC50 turned out to be 190 nM.

In the case of `Cc1ccccc1S(=O)(=O)N1CCC(O)(C(=O)Nc2ccc(OC(F)(F)F)cc2)CC1` [Example 59, 4-Hydroxy-1-(toluene-2-sulfonyl)-piperidine-4-carboxylic acid (4-trifluoromethoxy-phenyl)-amide], the concentration for half-maximal inhibition (IC50) was 290 nM.

As to `Cc1ccc(S(=O)(=O)N2CCC(O)(C(=O)Nc3ccc(OC(F)(F)F)cc3)CC2)cc1` [Example 60, 4-Hydroxy-1-(toluene-4-sulfonyl)-piperidine-4-carboxylic acid (4-trifluoromethoxy-phenyl)-amide], the IC50 was found to be 220 nM.
